Data: the NIST ThermoML archive (doi:10.1016/j.jct.2012.07.007)

Key:
[1] = xn = mol fraction of the nth substance listed; conditions: 101 kPa, Liquid; for speed of sound: Linear variable-path acoustic interferometer; for mass density: Vibrating tube method
[2] = excess molar enthalpy (molar enthalpy of mixing); xn = mol fraction of the nth substance listed; conditions: 298.15 K, 101 kPa, Liquid, 2-drop calorimetry

Cc1ccccn1 [2-methylpyridine] + CCn1cc[n+](C)c1.F[B-](F)(F)F
[1]
Conditions	mass density, 293.15 K [kg/m3]	mass density, 298.15 K [kg/m3]	mass density, 303.15 K [kg/m3]	mass density, 308.15 K [kg/m3]	speed of sound, 293.15 K [m/s]	speed of sound, 298.15 K [m/s]	speed of sound, 303.15 K [m/s]	speed of sound, 308.15 K [m/s]
x2 = 0.1219	1013.9	1010.93	1006.33	1002.14	1438.3	1415.5	1397.7	1379.6
x2 = 0.1776	1043.45	1040.53	1036.16	1032.07	1457.5	1434.8	1417.2	1400
x2 = 0.2341	1071.82	1068.69	1064.53	1060.5	1478.2	1454.8	1438.3	1422
x2 = 0.2778	1092.45	1089.12	1085.1	1081.18	1494.2	1471	1454.4	1439.1
x2 = 0.3209	1111.76	1108.07	1104.33	1100.37	1509.3	1487.7	1470.8	1455.6
x2 = 0.3721	1133.09	1129.16	1125.57	1121.65	1527.3	1506.4	1490.5	1475.5
x2 = 0.4232	1152.77	1148.64	1145.21	1141.21	1544.8	1525.5	1509	1495
x2 = 0.4727	1170.31	1166.05	1162.72	1158.68	1560	1542.7	1525.2	1513.6
x2 = 0.5217	1186.07	1181.95	1178.63	1174.56	1572.9	1557.7	1540.6	1530.3
x2 = 0.5742	1201.42	1197.47	1194.21	1190.05	1585.5	1572.9	1555.3	1545.9
x2 = 0.6217	1214.02	1210.21	1206.93	1202.85	1595.6	1585	1567.5	1559
x2 = 0.6724	1226.14	1222.71	1219.36	1215.15	1603.9	1596.5	1577.8	1571.1
x2 = 0.7228	1236.96	1233.88	1230.44	1226.27	1609.8	1605.1	1586.2	1581.5
x2 = 0.7725	1246.69	1243.95	1240.41	1236.19	1614.7	1611.1	1592.1	1589
x2 = 0.8216	1255.54	1252.96	1249.32	1245.1	1618.6	1615.5	1596.9	1593.8
x2 = 0.8741	1264.27	1261.73	1257.98	1253.82	1621.8	1618.7	1600.8	1597.4
x2 = 0.9218	1271.82	1269.01	1265.26	1261.08	1624.6	1619.8	1603.5	1598.2
x2 = 0.9319	1273.41	1270.5	1266.74	1262.57	1625.3	1619.6	1604	1598.3

[2]
Conditions	excess molar enthalpy [kJ/mol]
x2 = 0.1132	-0.109
x2 = 0.1578	-0.148
x2 = 0.2087	-0.194
x2 = 0.2467	-0.225
x2 = 0.2976	-0.266
x2 = 0.3245	-0.286
x2 = 0.3789	-0.326
x2 = 0.4235	-0.356
x2 = 0.4876	-0.395
x2 = 0.5123	-0.408
x2 = 0.5734	-0.437
x2 = 0.6145	-0.448
x2 = 0.6634	-0.453
x2 = 0.7145	-0.436
x2 = 0.7856	-0.399
x2 = 0.8265	-0.36
x2 = 0.8723	-0.304
x2 = 0.9226	-0.209

Cc1cccnc1 [3-methylpyridine] + CCn1cc[n+](C)c1.F[B-](F)(F)F
[1]
Conditions	mass density, 293.15 K [kg/m3]	mass density, 298.15 K [kg/m3]	mass density, 303.15 K [kg/m3]	mass density, 308.15 K [kg/m3]	speed of sound, 293.15 K [m/s]	speed of sound, 298.15 K [m/s]	speed of sound, 303.15 K [m/s]	speed of sound, 308.15 K [m/s]
x2 = 0.1217	1024.56	1020.46	1016.63	1011.73	1479.9	1465	1443.4	1427
x2 = 0.1729	1050.57	1046.54	1042.83	1038.13	1494.7	1480.8	1459.7	1443.9
x2 = 0.2415	1082.96	1079.02	1075.3	1070.72	1514	1499.7	1481.3	1465.7
x2 = 0.2711	1096.07	1092.1	1088.37	1084.01	1521.8	1507.9	1490.3	1474.6
x2 = 0.3214	1117.16	1113.25	1109.49	1105.3	1535.6	1520.5	1504.5	1488.8
x2 = 0.3732	1137.38	1133.44	1129.62	1125.73	1548.8	1532.8	1519.4	1503.3
x2 = 0.4219	1154.95	1151.03	1147.27	1143.6	1560.1	1543.2	1532.2	1517
x2 = 0.4718	1171.59	1167.7	1163.94	1160.52	1571.8	1554.4	1544.1	1530
x2 = 0.5209	1186.68	1182.83	1179.2	1175.87	1581.6	1564	1556	1541.8
x2 = 0.5723	1201.17	1197.38	1193.82	1190.64	1591.9	1574.7	1566.4	1554.1
x2 = 0.6221	1214.02	1210.25	1206.88	1203.74	1600.3	1583.7	1576.1	1565.4
x2 = 0.6731	1226.02	1222.36	1219.18	1215.94	1607.5	1593	1585.5	1576.2
x2 = 0.7212	1236.43	1232.83	1229.78	1226.48	1614.1	1601.4	1592.8	1585.3
x2 = 0.7708	1246.34	1242.76	1239.81	1236.4	1619.1	1608.8	1598.7	1593.7
x2 = 0.8224	1255.77	1252.24	1249.34	1245.81	1623.7	1614.9	1604.2	1599.5
x2 = 0.8713	1264.1	1260.53	1257.58	1253.89	1627.2	1619.3	1607.5	1603
x2 = 0.9119	1270.62	1266.99	1263.93	1260.07	1629	1621.6	1609	1603.9
x2 = 0.9317	1273.7	1270	1266.86	1262.91	1629.8	1621.8	1609.2	1603.2

[2]
Conditions	excess molar enthalpy [kJ/mol]
x2 = 0.1256	-0.136
x2 = 0.1676	-0.171
x2 = 0.2089	-0.205
x2 = 0.2578	-0.245
x2 = 0.2976	-0.272
x2 = 0.3387	-0.294
x2 = 0.3898	-0.32
x2 = 0.4367	-0.341
x2 = 0.4876	-0.361
x2 = 0.5223	-0.369
x2 = 0.599	-0.376
x2 = 0.6345	-0.372
x2 = 0.689	-0.36
x2 = 0.7356	-0.339
x2 = 0.7909	-0.298
x2 = 0.8479	-0.244
x2 = 0.889	-0.197
x2 = 0.9109	-0.165
